Structures can show the parent of a compound that is named as a salt.
Test system: activated T cells (CD4+ T cells from mouse spleen)
Experiment: 3H-thymidine uptake in activated T cells
Format: cell-based, mouse (C57BL/6J)
Conditions: T-cell; mouse spleen CD4+ T cells activated with Dynabeads Mouse T-Activator CD3/CD28; read-out: IC50 (3H-thymidine uptake, proliferation of activated T cells)
Description: Effect of Test Substance on ^3H-Thymidine Uptake in Activated T Cells
The effect of test substance on ^3H-thymidine uptake by activation was evaluated using T cells from mouse spleen. The spleen was removed from euthanized C57BL/6J mice, and finely sliced, then triturated on a cell strainer (40 μm mesh), and cells were collected by centrifugation. The collected splenocytes were treated with Cold lyser containing 0.17 M NH4Cl for 5 minutes to hemolytically remove red blood cells and then washed. The resulting cells were used as the splenocytes. From the splenocytes, CD4+ T cells were isolated using an EasySep Mouse CD4+ T cell isolation kit (STEMCELL Technologies Inc.). The CD4+ T cells were seeded into 96-well round-bottom plates. To the plates, test substance or Vehicle was added, and Dynabeads Mouse T-Activator CD3/CD28 (Thermo Fisher Scientific Inc.) was added, then the cells were cultured at 37° C. under 5% CO2. After 24 hours of culture, ^3H-Thymidine (PerkinElmer Inc.) diluted with medium was added to each well, then the cells were further cultured at 37° C. under 5% CO2 overnight. To measure ^3H-Thymidine uptake into the nuclei of the cells, the cells were collected into filter plates UniFilter-96 GF/B (PerkinElmer Inc.) using a FilterMate Universal Harvester (PerkinElmer Inc.). The filter plates were placed in a dryer and left still for 2 hours or more. Then, scintillation cocktail MicroScint-O (PerkinElmer Inc.) was added to the plates, and radioactivity was measured with TopCount NXT (PerkinElmer Inc.). With the radioactivity of the test substance-free group set as 100% and the radioactivity of the non-activation group as 0%, the relative value (proliferation rate, % of vehicle) of the radioactivity of each well to which test substance was added was calculated. The value of % of vehicle was incorporated into analysis software Prism (Version 5.0, GraphPad Software), the “Nonlinear Regression Log (inhibitor) vs Reaction Variable Inclination” was selected, and then sigmoid fitting with restrictions of Bottom=0 and Top=100 was performed to calculate 50% inhibitory concentration (IC50).

Structure (SMILES) | IC50 [nM]
N[C@@H](Cc1cccc(S(=O)(=O)N2CC(Oc3cccc(F)c3)(c3ccc(F)cc3)C2)c1)C(=O)O [Example 1, (S)-2-Amino-3-(3-((3-(3-fluorophenoxy)-3-(4-fluorophenyl)azetidin-1-yl)sulfonyl)phenyl)propanoic acid] | 1.2
N[C@@H](Cc1cccc(S(=O)(=O)N2CC(Oc3ccccc3C(F)(F)F)(c3ccccc3)C2)c1)C(=O)O [Example 2] | 15
N[C@@H](Cc1cccc(S(=O)(=O)N2CC(Oc3cccc(Cl)c3)(c3ccccc3)C2)c1)C(=O)O [Example 3, (S)-2-Amino-3-(3-((3-(3-chlorophenoxy)-3-phenylazetidin-1-yl)sulfonyl)phenyl)propanoic acid] | 3.1
N[C@@H](Cc1cccc(S(=O)(=O)N2CC(Oc3ccccc3F)(c3ccc(F)cc3)C2)c1)C(=O)O [Example 4, (S)-2-Amino-3-(3-((3-(2-fluorophenoxy)-3-(4-fluorophenyl)azetidin-1-yl)sulfonyl)phenyl)propanoic acid] | 2.6
N[C@@H](Cc1cccc(S(=O)(=O)N2CC(Oc3ccccc3Br)(c3ccccc3)C2)c1)C(=O)O [Example 5, (S)-2-Amino-3-(3-((3-(2-bromophenoxy)-3-phenylazetidin-1-yl)sulfonyl)phenyl)propanoic acid] | 3.2
N[C@@H](Cc1cccc(S(=O)(=O)N2CC(Oc3ccc(F)cc3)(c3ccc(F)cc3)C2)c1)C(=O)O [Example 6, (S)-2-Amino-3-(3-((3-(4-fluorophenoxy)-3-(4-fluorophenyl)azetidin-1-yl)sulfonyl)phenyl)propanoic acid] | 1.2
N[C@@H](Cc1cccc(S(=O)(=O)N2CC(Oc3ccccc3Cl)(c3ccccc3)C2)c1)C(=O)O [Example 7, (S)-2-Amino-3-(3-((3-(2-chlorophenoxy)-3-phenylazetidin-1-yl)sulfonyl)phenyl)propanoic acid] | 4.1
N[C@@H](Cc1cccc(S(=O)(=O)N2CC(Oc3cccc(Br)c3)(c3ccccc3)C2)c1)C(=O)O [Example 8, (S)-2-Amino-3-(3-((3-(3-bromophenoxy)-3-phenylazetidin-1-yl)sulfonyl)phenyl)propanoic acid] | 3
Cc1ccc(OC2(c3ccccc3)CN(S(=O)(=O)c3cccc(C[C@H](N)C(=O)O)c3)C2)cc1 [Example 9] | 4.3
N[C@@H](Cc1cccc(S(=O)(=O)N2CC(Oc3ccc(F)c(F)c3)(c3ccccc3)C2)c1)C(=O)O [Example 10, (S)-2-Amino-3-(3-((3-(3,4-difluorophenoxy)-3-phenylazetidin-1-yl)sulfonyl)phenyl)propanoic acid] | 21
N[C@@H](Cc1cccc(S(=O)(=O)N2CC(Oc3ccc(F)c(Cl)c3)(c3ccccc3)C2)c1)C(=O)O [Example 11] | 20
N[C@@H](Cc1cccc(S(=O)(=O)N2CC(Oc3ccc(C(F)(F)F)cc3)(c3ccccc3)C2)c1)C(=O)O [Example 12] | 9.6
N[C@@H](Cc1cccc(S(=O)(=O)N2CC(Oc3cccc(F)c3)(c3ccccc3F)C2)c1)C(=O)O [Example 13] | 3
N[C@@H](Cc1cccc(S(=O)(=O)N2CC(Oc3ccc(F)cc3)(c3ccccc3F)C2)c1)C(=O)O [Example 14] | 30
NC(=O)c1cccc(OC2(c3ccccc3)CN(S(=O)(=O)c3cccc(C[C@H](N)C(=O)O)c3)C2)c1 [Example 15] | 2.9
N[C@@H](Cc1cccc(S(=O)(=O)N2CC(Cc3ccccc3)(c3ccccc3)C2)c1)C(=O)O [Example 16] | 68
NC(=O)c1ccc(OC2(c3ccccc3)CN(S(=O)(=O)c3cccc(C[C@H](N)C(=O)O)c3)C2)cc1 [Example 17, (S)-2-Amino-3-(3-((3-(4-carbamoylphenoxy)-3-phenylazetidin-1-yl)sulfonyl)phenyl)propanoic acid hydrochloride] | 1.2
N#Cc1ccccc1OC1(c2ccccc2)CN(S(=O)(=O)c2cccc(C[C@H](N)C(=O)O)c2)C1 [Example 18, (S)-2-Amino-3-(3-((3-(2-cyanophenoxy)-3-phenylazetidin-1-yl)sulfonyl)phenyl)propanoic acid] | 2.9
